Experiments:
[1] = system: PDE3; test: HTS drug screening for PDE3 (PDELight HTS cAMP Phosphodiesterase Kit, luminescence); assay type: biochemical; settings: compared with conventional drugs
Procedure: For drug screening, high-throughput screening (HTS) was used.
In addition, as described above, in the present invention, to screen materials for treating neurodegenerative diseases such as Alzheimer's disease and Lou Gehrig's disease, among PDE isoforms, PDE3 was selected as a target, and an optimized concentration to be used in the experiment was selected to construct a drug screening system as shown in FIG. 9.
Compounds included in the library of 800 FDA-approved drugs were diluted 1/4 from a concentration of 100 μM and dispensed into each well in 96-well plates, and mixed with a PDE reactant to allow a PDE reaction with the drug for 1 hour at a constant temperature.
For drug efficacy screening for PDE inhibition, HTS was used. cAMP-based screening was conducted with an FDA-approved drug library and a Selleckchem library based on the conventional PDE inhibitor. The experiment was carried out in the same manner as used in screening of the FDA-approved drug library. Compared with cilostazol, which is known as a PDE3 inhibitor, drugs with high inhibitory activity were selected. […] After a stop solution was mixed with a AMP detection agent, the mixture was dispensed at 20 μl per well to allow a reaction for 10 minutes, followed by immediately measuring luminescence, and the experiment was performed according to a protocol provided by the kit used herein.

[2] = system: amyloid beta-accumulated pericytes and astrocytes; test: Amyloid beta expression pattern on AMX treatment (western blotting); assay type: cell-based, mouse; settings: amyloid beta injected and accumulated in pericytes and astrocytes, then AMX
Procedure: (§1) For astrocyte culture, first, cerebral cortices (neocortices) were dissociated from murine fetuses (3 weeks old), and the obtained cortical tissue was divided into single cells. […] New cells were cultured and used each time without passaging.
Each type of cell was cultured under the culture conditions, a cell culture was restored, followed by preparing a particulate fraction in a 50 mM Tris buffer. Proteins obtained from the cell culture developed in a SDS polyacrylamide gel, transferred to an immobilon-P membrane (Millipore, USA), and reacted with antibodies overnight. Next day, western blots were washed, reacted with peroxidase-linked secondary antibodies at room temperature for 1 hour, followed by staining bands with 4-chloro-1-naphthol.
FIG. 16 is a graph representing the percent activity (% activity) according to the concentrations of finally selected amlexanox (AMX) for various PDE isoforms, and FIGS. 17 and 18 show western blotting images representing the amyloid beta expression pattern and G93A SOD-1 and P301L tau expression when amyloid beta-accumulated pericytes and astrocytes are treated with the finally selected amlexanox (AMX).

[3] = system: mouse pericytes; test: Lysosome pH in bafilomycin A1-treated pericytes (LysoSensor, confocal microscope); assay type: cell-based; settings: cells alkalized by bafilomycin A1
Text: A system that can visualize changes in intracellular lysosome pH with LysoSensor, which is a pH-sensitive lysosomal dye, in mouse pericytes using a confocal microscope was established (refer to Example 6) to observe whether amlexanox (AMX) is involved in the pH change of lysosomes in cells.
FIG. 19 is a set of time-dependent confocal microscope images (left) of mouse pericytes when being treated with Bafilomycin A1, which is a vATPase inhibitor, and then stained with LysoSensor, and quantified data (right) thereof.
Here, the images on the left side of FIG. 19 are obtained by treating mouse pericytes with bafilomycin A1, which is a vATPase inhibitor, and analyzing the cells using LysoSensor over time by a confocal microscope (top), and by treating the bafilomycin A1-treated mouse pericytes with the finally selected amlexanox (AMX) and analyzing the cells using LysoSensor over time by a confocal microscope (bottom).

[4] = system: mouse pericytes; test: Zinc concentration in pericytes (Zinpyr-1 fluorescence); assay type: cell-based
Text: FIG. 20 is a set of confocal microscope images of groups of mouse pericytes, which are not treated (CTL) or treated with finally-selected amlexanox (AMX) (PDEi), in which, to measure a zinc concentration, fluorescence intensity was detected by treating the cells with a fluorescent dye (Zinpyr-1) for detecting zinc ions.

[5] = system: cathepsin B; test: Lysosomal function activity in astrocytes: degree of hydrolysis of cathepsin B; assay type: cell-based, mouse; settings: bafilomycin A1-treated mouse astrocytes
Procedure: Samples stained with enzymatic dyes such as cathepsin B and cathepsin L were administered into the cell culture to allow a reaction for 30 minutes, and changes in activity of lysosomes in cells were confirmed using a confocal microscope.
Astrocytes were stained with a fluorescence-tagged lysosomal protein, and the degrees of hydrolysis of cathepsin B and cathepsin L, which are lysosomal proteins, were analyzed.
FIG. 21 is a set of time-dependent confocal microscope images of mouse astrocytes, which are treated with bafilomycin A1, which is a vATPase inhibitor, to assess the degree of hydrolysis of cathepsin B (top) and cathepsin L (bottom).

[6] = system: G93A SOD-1 mice; test: Survival rate and motor behaviour in Lou Gehrig's disease animal model; assay type: in vivo, mouse
Text: G93A SOD-1 mice in which a mutant protein of the ALS-related gene SOD-1 (the expression of an amino acid at codon 93, in which glycine is substituted with alanine) of a human were used as Lou Gehrig's disease animal models. The G93A SOD-1 mice were purchased by the Jackson Laboratory (USA).
In the animal models of Lou Gehrig's disease, spinal motor neuron death occurs, causing limb paralysis at one or both sides. The clinical scoring system was differentiated using the following neurological scoring system.
The mice were euthanized at 0 points (Weydt et al. 2003). In the Lou Gehrig's disease animal models, which is one of the neurodegenerative disease models, a vehicle or amlexanox (AMX) was intraperitoneally administered at 2.5 mg/kg once daily for 5 days, and then a survival rate was measured through a behavioral experiment.
The behavioral experiment was performed on each of the AMX-administered group and the control (Veh) once or twice a week before symptoms occur until death. A method of gradually increasing a speed from 4 rpm to 40 rpm and a method of exercising at a constant speed of 15 rpm for 10 minutes were selected. The time to fall off from a rod was recorded to analyze the difference between the AMX-administered group and the control group.
Changes in survival rate were confirmed by intraperitoneal injection into G93A-SOD mice daily at various AMX concentrations.

[7] = system: astrocytes; test: H2O2 oxidative damage cell death in astrocytes (LDH method); assay type: cell-based; settings: H2O2, after 24 hours
Procedure: as §1
Specifically, cell death caused by oxidative damage was induced by injecting H2O2 into astrocytes, a cell culture model similar to the animal model with a neurodegenerative disease such as Alzheimer's disease or Lou Gehrig's disease was manufactured. To confirm the cell protective effect of amlexanox (AMX) in the cell model manufactured as described above, an untreated H2O2 control and an experimental group produced by administering amlexanox (AMX) into the untreated H2O2 control were prepared, and after 24 hours, cell death was quantitatively assessed by a LDH method.

[8] = system: GFP-tagged mHttQ protein; test: GFP-mHttQ aggregation (GFP antibody); assay type: cell-based; settings: cells injected with GFP-tagged mHttQ protein, AMX
Procedure: A GFP-tagged mHttQ protein was injected into cells, thereby confirming a pharmacological reaction mediated by AMX using a GFP antibody. The accumulation of mHttQ in cells through aggregation was confirmed by GFP expression.

[9] = G93A-SOD mice, AMX at various concentrations, compared with untreated control

## CC(C)c1ccc2oc3nc(N)c(C(=O)O)cc3c(=O)c2c1 [amlexanox, 2-amino-7-isopropyl-5-oxo-5H-[1]benzopyrano[2,3-b] pyridine-3-carboxylic acid]
[1]
  inhibitory effect specific for PDE3: significant inhibitory effect
[2]
  aggregation of amyloid beta protein: inhibited
[3]
  time to restore (acidify) the lysosome pH environment to the original state: ≤ 60 minutes
[4]
  concentration of zinc in the cell: restored and increased to a normal level
[5]
  time to restore lysosomal activity of cathepsin B to the original state: ≤ 60 min
[6]; G93A SOD-1 mice, 2.5 mg/kg intraperitoneal once daily 5 days a week from week 10
  survival rate: 130.2 ± 2.0 days
[6]; [9]
  onset of ataxia: slower
  progression of ataxia: reduced
[6]; G93A-SOD mice, daily intraperitoneal injection at various AMX concentrations, compared with Veh group
  survival rate: concentration-dependently increased
[7]
  cell death: up to 40%
[8]
  GFP expression (aggregated GFP-mHttQ protein): decrease

— patent US20210220340A1, “COMPOSITION FOR PREVENTION OR TREATMENT OF NEURODEGENERATIVE DISEASE” (THE ASAN FOUNDATION, priority 2018, published 2021)
